Patent publication US20240174624A1, “CHIRAL N-(1,3,4-OXADIAZOLE-2-YL)PHENYL CARBOXYLIC ACID AMIDES AND THEIR USE AS HERBICIDES” (Bayer Aktiengesellschaft, priority 2021, published 2024)

Legend:
ZEAMX [1] = test: Post-emergence damage to crop plants; format: in vivo, Zea mays; conditions: 80 g a.i./ha, comparative experiment
Procedure: (§1) Seeds of monocotyledonous and dicotyledonous weed and crop plants are laid out in sandy loam soil in wood-fibre pots, covered with soil and cultivated in a greenhouse under good growth conditions. 2 to 3 weeks after sowing, the test plants are treated at the one-leaf stage. The compounds of the invention, formulated in the form of wettable powders (WP) or as emulsion concentrates (EC), are then sprayed onto the green parts of the plants in the form of an aqueous suspension or emulsion at a water application rate equating to 600 to 800 l/ha, with addition of 0.2% wetting agent. After the test plants have been left to stand in the greenhouse under optimal growth conditions for about 3 weeks, the action of the preparations is assessed visually in comparison to untreated controls (herbicidal action in percent (%): 100% activity=the plants have died, 0% activity=like control plants). […] The tables below illustrate, in an illustrative manner, the post-emergence herbicidal action of the compounds of the invention, the herbicidal activity being stated in percent. In the experiments that follow, the herbicidal action of the compounds of the invention and that of the corresponding known racemic compounds closest from WO2012126932 and WO2018202535 were compared under the above-specified conditions by the pre-emergence and post-emergence method. The example numbers given in the tables relate to the compounds disclosed in the respective documents.

TRZAS [2] = test: Post-emergence damage to crop plants; format: in vivo, Triticum aestiva; conditions: 80 g a.i./ha, comparative experiment
Outline: (§2)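 Seeds are sown in sandy loam and grown under greenhouse conditions until the one-leaf stage. Formulated compounds (WP or EC) are then sprayed onto green parts at a water rate of 600 to 800 l/ha with 0.2% wetting agent. About 3 weeks later, activity is rated visually as percent relative to untreated plants.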

PHBPU [3] = test: Pre-emergence herbicidal action; format: in vivo, Pharbitis purpurea; conditions: 80 g/ha, scored after 3 weeks
Excerpt: (§3) Seeds of monocotyledonous and dicotyledonous weed plants and crop plants are laid out in sandy loam soil in wood-fibre pots and covered with soil. The compounds of the invention, formulated in the form of wettable powders (WP) or as emulsion concentrates (EC), are then applied to the surface of the covering soil in the form of an aqueous suspension or emulsion at a water application rate equivalent to 600 to 800 l/ha, with addition of 0.2% wetting agent. After the treatment, the pots are placed in a greenhouse and kept under good growth conditions for the trial plants. The damage to the test plants is scored visually after a test period of 3 weeks by comparison with untreated controls (herbicidal activity in percent (%): 100% activity=the plants have died, 0% activity=like control plants). […] The tables below illustrate, in an illustrative manner, the post-emergence herbicidal action of the compounds of the invention, the herbicidal activity being stated in percent.

VERPE = test: Post-emergence herbicidal action; format: in vivo, Veronica persica; conditions: 20 g/ha, assessed after about 3 weeks
Outline: as §2

ORYZA [4] = test: Post-emergence damage to crop plants; format: in vivo, Oryza sativa; conditions: 80 g a.i./ha, comparative experiment
Procedure: as §1

AMARE [5] = test: Post-emergence herbicidal action; format: in vivo, Amaranthus retroflexus; conditions: assessed after about 3 weeks
Outline: (§4)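 Greenhouse plants in sandy loam treated at the one-leaf stage, 2–3 weeks after sowing, by spraying WP or EC formulations as aqueous suspension/emulsion at 600–800 l/ha with 0.2% wetting agent. Visual assessment after about 3 weeks versus untreated controls, as percent action (100% = plants dead, 0% = like control).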

TRZAS [6] = test: Pre-emergence damage to crop plants; format: in vivo, Triticum aestiva; conditions: 80 g a.i./ha, comparative experiment
Excerpt: as §3, with “percent. In the experiments that follow, the herbicidal action of the compounds of the invention and that of the corresponding known racemic compounds closest from WO2012126932 and WO2018202535 were compared under the above-specified conditions by the pre-emergence and post-emergence method. The example numbers given in the tables relate to the compounds disclosed in the respective documents.” for “percent.”

AVEFA [7] = test: Post-emergence herbicidal action; format: in vivo, Avena fatua; conditions: 20 g/ha, assessed after about 3 weeks
Procedure: as §1, with “percent.” for “percent. In the experiments that follow, the herbicidal action of the compounds of the invention and that of the corresponding known racemic compounds closest from WO2012126932 and WO2018202535 were compared under the above-specified conditions by the pre-emergence and post-emergence method. The example numbers given in the tables relate to the compounds disclosed in the respective documents.”

PHBPU [8] = test: Post-emergence herbicidal action; format: in vivo, Pharbitis purpurea; conditions: assessed after about 3 weeks
Procedure: as §1, with “percent.” for “percent. In the experiments that follow, the herbicidal action of the compounds of the invention and that of the corresponding known racemic compounds closest from WO2012126932 and WO2018202535 were compared under the above-specified conditions by the pre-emergence and post-emergence method. The example numbers given in the tables relate to the compounds disclosed in the respective documents.”

MATIN [9] = test: Pre-emergence herbicidal action; format: in vivo, Matricaria inodora; conditions: scored after 3 weeks
Outline: (§5)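 Pre-em, sandy loam, wood-fibre pots. Spray onto cover soil: aq. suspension/emulsion of WP/EC, 600 to 800 l/ha, 0.2% wetting agent. Greenhouse, 3 wk; visual score vs untreated, 0–100%.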

VIOTR [10] = test: Post-emergence herbicidal action; format: in vivo, Viola tricolor; conditions: assessed after about 3 weeks
Procedure: as §1

MATIN [11] = test: Post-emergence herbicidal action; format: in vivo, Matricaria inodora; conditions: assessed after about 3 weeks
Outline: as §4

ECHCG [12] = test: Pre-emergence herbicidal action; format: in vivo, Echinochloa crus-galli; conditions: scored after 3 weeks
Outline: (§6)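 Weed and crop seeds were sown in sandy loam, and WP or EC formulations were sprayed onto the covering soil at 600 to 800 l/ha water with 0.2% wetting agent. After 3 weeks in a greenhouse, damage was scored visually against untreated controls as percent activity (100% = plants dead).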

VIOTR [13] = test: Pre-emergence herbicidal action; format: in vivo, Viola tricolor; conditions: scored after 3 weeks
Outline: as §6

ORYZA [14] = test: Pre-emergence damage to crop plants; format: in vivo, Oryza sativa; conditions: 80 g a.i./ha, comparative experiment
Excerpt: as §3, with “percent. In the experiments that follow, the herbicidal action of the compounds of the invention and that of the corresponding known racemic compounds closest from WO2012126932 and WO2018202535 were compared under the above-specified conditions by the pre-emergence and post-emergence method. The example numbers given in the tables relate to the compounds disclosed in the respective documents.” for “percent.”

AVEFA [15] = test: Pre-emergence herbicidal action; format: in vivo, Avena fatua; conditions: 80 g/ha, scored after 3 weeks
Outline: as §5

ECHCG [16] = test: Post-emergence herbicidal action; format: in vivo, Echinochloa crus-galli; conditions: assessed after about 3 weeks
Outline: as §2

POLCO [17] = test: Pre-emergence herbicidal action; format: in vivo, Polygonum convolvulus; conditions: 80 g/ha, scored after 3 weeks
Outline: as §5

ZEAMX [18] = test: Pre-emergence damage to crop plants; format: in vivo, Zea mays; conditions: 320 g a.i./ha, comparative experiment
Outline: as §5

POLCO [19] = test: Post-emergence herbicidal action; format: in vivo, Polygonum convolvulus; conditions: 20 g/ha, assessed after about 3 weeks
Procedure: as §1, with “percent.” for “percent. In the experiments that follow, the herbicidal action of the compounds of the invention and that of the corresponding known racemic compounds closest from WO2012126932 and WO2018202535 were compared under the above-specified conditions by the pre-emergence and post-emergence method. The example numbers given in the tables relate to the compounds disclosed in the respective documents.”

SETVI [20] = test: Pre-emergence herbicidal action; format: in vivo, Setaria viridis; conditions: scored after 3 weeks
Outline: as §5

ALOMY = test: Pre-emergence herbicidal action; format: in vivo, Alopecurus myosuroides; conditions: 80 g/ha, scored after 3 weeks
Outline: as §5

AMARE [21] = test: Pre-emergence herbicidal action; format: in vivo, Amaranthus retroflexus; conditions: scored after 3 weeks
Outline: as §6

SETVI [22] = test: Post-emergence herbicidal action; format: in vivo, Setaria viridis; conditions: assessed after about 3 weeks
Outline: as §2

C[S+]([O-])c1c(C(F)(F)F)ccc(C(=O)Nc2nnco2)c1Cl (stereo in doubt) [Example I-1, 2-chloro-N-(1,3,4-oxadiazol-2-yl)-3-[(S)-methylsulfinyl]-4-(trifluoromethyl)benzamide]
0%: Damage to ZEAMX (ZEAMX [1]) | Damage to ZEAMX (ZEAMX [18])
70%: Damage to ORYZA (ORYZA [4])
80%: Post-emergence action against AVEFA (AVEFA [7]) | Post-emergence action against MATIN (MATIN [11]; 5 g/ha) | Damage to ORYZA (ORYZA [14]) | Pre-emergence action against AVEFA (AVEFA [15]) | Pre-emergence action against POLCO (POLCO [17]) | Post-emergence action against POLCO (POLCO [19]) | Pre-emergence action against SETVI (SETVI [20]; 20 g/ha) | Pre-emergence action against ALOMY (ALOMY) | Post-emergence action against SETVI (SETVI [22]; 5 g/ha)
60%: Damage to TRZAS (TRZAS [2])
90%: Post-emergence action against VERPE (VERPE) | Post-emergence action against VIOTR (VIOTR [10]; 1.25 g/ha) | Post-emergence action against MATIN (MATIN [11]; 20 g/ha) | Pre-emergence action against ECHCG (ECHCG [12]; 5 g/ha)
30%: Damage to TRZAS (TRZAS [6])
100%: Pre-emergence action against PHBPU (PHBPU [3]) | Post-emergence action against AMARE (AMARE [5]; 1.25 g/ha) | Post-emergence action against AMARE (AMARE [5]; 5 g/ha) | Post-emergence action against AMARE (AMARE [5]; 20 g/ha) | Post-emergence action against PHBPU (PHBPU [8]; 5 g/ha) | Post-emergence action against PHBPU (PHBPU [8]; 20 g/ha) | Pre-emergence action against MATIN (MATIN [9]; 20 g/ha) | Pre-emergence action against MATIN (MATIN [9]; 80 g/ha) | Post-emergence action against VIOTR (VIOTR [10]; 5 g/ha) | Post-emergence action against VIOTR (VIOTR [10]; 20 g/ha) | Pre-emergence action against ECHCG (ECHCG [12]; 20 g/ha) | Pre-emergence action against ECHCG (ECHCG [12]; 80 g/ha) | Pre-emergence action against VIOTR (VIOTR [13]; 20 g/ha) | Pre-emergence action against VIOTR (VIOTR [13]; 80 g/ha) | Post-emergence action against ECHCG (ECHCG [16]; 5 g/ha) | Post-emergence action against ECHCG (ECHCG [16]; 20 g/ha) | Pre-emergence action against SETVI (SETVI [20]; 80 g/ha) | Pre-emergence action against AMARE (AMARE [21]; 20 g/ha) | Pre-emergence action against AMARE (AMARE [21]; 80 g/ha) | Post-emergence action against SETVI (SETVI [22]; 20 g/ha)
